Source: ChEMBL document CHEMBL1156829 (Proc Natl Acad Sci U S A, 2008)

Key:
[1] = NOVARTIS: Cytotoxicity against human hepatocellular carcinoma cell line (Huh7); type: toxicity, cell-based, Huh-7; settings: Huh7 cells (hepatocellular carcinoma cell line)
Plasmodium falciparum [2] = test: NOVARTIS: Inhibition of Plasmodium falciparum 3D7 (drug-susceptible) proliferation in erythrocyte-based infection assay; type: functional, organism-based; settings: Plasmodium falciparum, 3D7
Plasmodium falciparum [3] = test: NOVARTIS: Inhibition of Plasmodium falciparum W2 (drug-resistant) proliferation in erythrocyte-based infection assay; type: functional, organism-based; settings: Plasmodium falciparum, W2; read-out: EC50

Row | SMILES | CC50 [1] [µM] | EC50 (Plasmodium falciparum [2]) [µM] | EC50 (Plasmodium falciparum [3]) [µM]
1 | CCN(CC)CCNc1ccc(Nc2ccnc3cc4ccccc4cc23)cc1 | 2.36 | 0.0282 | 0.0417
2 | Nc1ccc2nc(C=Cc3ccc(Cl)cc3)[nH]c2c1 | 6.9 | 0.58 | 0.121
3 | c1ccc2cc3c(Nc4ccc(N5CCCCC5)cc4)ccnc3cc2c1 | 67.7 | 0.743 | 1.22
4 | O=C(C1CCN(c2nnnn2-c2ccccc2)CC1)N1CCc2ccccc2C1 | > 100 | 1.3 | 1.79
5 | N#Cc1ccccc1N1CCCCC1 | > 100 | > 10.8 | 1.79
6 | COc1cc2nc(N3CCN(c4nc(N)c5cc(OC)c(OC)cc5n4)CC3)nc(N)c2cc1OC | 14.7 | 0.0911 | 0.257
7 | O=c1c2ccccc2[nH]c2cc(Cl)ccc12 | > 10 | 0.0955 | 0.178
8 | COCCSc1nc2sc3c(c2c(=O)n1-c1ccc(OC)cc1)CCN(C)C3 | > 100 | 3.02 | 1.77
9 | C=CCSc1ncc(-c2ccc(Cl)cc2)n1C | > 100 | > 12.5 | 1.77
10 | Oc1ccc(Cl)cc1CNc1nc2ccccc2[nH]1 | 43.5 | 0.921 | 0.768
11 | Cc1cc(C)c(NC(=S)N(CCCN2CCCCC2)Cc2cccs2)c(C)c1 | > 10 | > 1.54 | 0.179
12 | O=C1c2ccc3c4c(ccc(c24)C(=O)N1CCCCO)C(=O)N(CCCCO)C3=O | 4.38 | 0.354 | 0.0774
13 | CC1(C)N=C(N)N=C(N)N1c1ccc(Oc2ccc(Cl)cc2)c(Cl)c1 | 35.1 | 0.058 | 0.628
14 | C=CCn1c(SCC(=O)Nc2ccccc2C)nc2sc(C)cc2c1=O | > 100 | 4.28 | 1.8
15 | CCOC(=O)c1ccc(NC(=O)c2ccc3nc(NC(=O)c4ccc(C(=O)OC)cc4)sc3c2)cc1 | > 100 | > 6.51 | 1.79
16 | COc1ccc(NC(=O)Cn2c(C)c(C=O)c3ccccc32)cc1 | > 100 | 1.45 | 1.77
17 | O=C(NC(CN1CCCC1)c1ccccc1)C1CCN(S(=O)(=O)c2ccc(Cl)cc2)CC1 (stereo not given) | 36.8 | 0.161 | 0.648
18 | CCN1CCN(CCCNC(=S)Nc2ccc3nc(N4CCCC4)cc(C)c3c2)CC1 | 44.2 | 0.256 | 0.773
19 | Cc1n(N)c2ccccc2[n+]1CC(=O)c1ccccc1 | > 100 | 2.9 | 1.75
20 | O=C(Nc1ccc(Br)cc1C(=O)c1ccccc1)c1cc2nc(-c3cccs3)cc(C(F)(F)F)n2n1 | > 100 | > 12.5 | 1.76
21 | COC(=O)CNC(c1ccccc1Cl)c1cc(Br)ccc1NS(=O)(=O)c1ccc(C)cc1 (stereo not given) | > 100 | 1.93 | 1.76
22 | Cc1cc(NC(c2cccc(Br)c2)c2ccc3cccnc3c2O)no1 (stereo not given) | > 22.8 | 0.267 | 0.4
23 | CCCCN1C(=O)/C(=C2/Sc3ccccc3N2C)SC1=Nc1cc(C)ccc1C | > 10 | > 0.581 | > 0.175
24 | N=c1n(CCN2CCCCC2)c2ccccc2n1CC(O)c1ccc(Cl)c(Cl)c1 (stereo not given) | 12.8 | 0.0528 | 0.224
25 | C[n+]1cccc2ccc3cccnc3c21 | > 8.03 | 0.0664 | 0.14
26 | COc1ccc(-c2n(CC(=O)OC3CC(C)CCC3C(C)C)c3ccccc3[n+]2C)cc1 (stereo not given) | 13.4 | 0.391 | 0.233
27 | OC(Cn1nnc2ccccc21)Cn1c2ccc(Br)cc2c2cc(Br)ccc21 (stereo not given) | > 78 | 3.37 | 1.35
28 | COc1cc(-c2nc(-c3cccc(Cl)c3)c(-c3ccccc3)[nH]2)cc(OC)c1O | 43.2 | 0.583 | 0.749

Row | SMILES | CC50 [1] [µM] | EC50 (Plasmodium falciparum [2]) [µM] | EC50 (Plasmodium falciparum [3]) [µM]
29 | CC(C)CC(NC(=O)C(=Cc1ccco1)NC(=O)c1ccccc1)C(=O)OCc1ccccc1 (stereo not given) | > 100 | > 12.5 | 1.73
30 | C=CCn1c(SCC(=O)c2cc(C)n(-c3ccccc3F)c2C)nc2sc3c(c2c1=O)CCCC3 | > 10 | > 1.25 | > 0.18
31 | CCOC(=O)C1(CC2CCCCO2)CCN(Cc2cccc(C)n2)CC1 (stereo not given) | > 100 | > 8.37 | 1.78
32 | COc1ccc2c(c1)C(=NN=C(N)N)c1cc(OC)ccc1-2 | > 10 | 0.123 | 0.178
33 | CC1CCCCN1CCCN(Cc1c2ccccc2cc2ccccc12)C(=O)c1ccccc1Cl (stereo not given) | > 1.74 | 0.878 | 0.0312
34 | O=C(Nc1cccc(C2=NCCN2)c1)c1ccc(C(=O)Nc2cccc(C3=NCCN3)c2)cc1 | > 10 | 0.599 | 0.178
35 | COc1cc2nc(Nc3cccc(F)c3)nc(N)c2cc1OC | 20.1 | 0.148 | 0.358
36 | Oc1ccc(Br)c(C(Nc2ccccn2)c2ccc3cccnc3c2O)c1 (stereo not given) | 15.7 | 0.555 | 0.281
37 | CCCCCCN(C(=O)c1cccc(OC)c1)C(CC)c1nc2ccccc2c(=O)n1-c1ccc(Cl)cc1C (stereo not given) | > 10 | 1.12 | > 0.177
38 | Cc1cc2c(cc1C)NC(c1ccccc1F)C1=C(CC(C)(C)CC1=O)N2 (stereo not given) | > 100 | 1.65 | 1.79
39 | C[N+](C)(C)c1nc(N2CCOCC2)nc(N(c2ccccc2)c2ccccc2)n1 | > 10 | 0.0632 | 0.179
40 | Cc1nc2ccccn2c1C1(O)C(=O)Nc2c(Cl)cc(Cl)cc21 (stereo not given) | > 10 | 0.449 | 0.178
41 | CC(=O)N(C1=C(N(C)C)C(=O)c2ccccc2C1=O)c1ccc(F)c(F)c1 | 2.36 | 0.0161 | 0.0411
42 | O=[N+]([O-])c1ccc(NCCNc2nc(N3CCCC3)nc3ccccc23)cc1 | 19.2 | 0.564 | 0.334
43 | CC12CN(Cc3ccccc3)CC(C)(CN(Cc3cccc(Br)c3)C1)C2 | 47.2 | 3.62 | 0.819
44 | c1ccc(-c2c3c(cc4ccccc24)C[N+]2(CCCC2)C3)cc1 | > 100 | 1.33 | 1.73
45 | COc1ccc(C(C)=O)cc1N1C(=O)C2C(C1=O)C1(c3ccccc3)C(=O)C2(c2ccccc2)C(c2ccc(C)cc2)=C1c1ccc(C)cc1 (stereo not given) | > 100 | 2.46 | 1.79
46 | Cc1ccc(C2C3=C(CC(C)(C)CC3=O)N(Cc3ccc4c(c3)OCO4)C3=C2C(=O)CC(C)(C)C3)cc1 | > 100 | 3.75 | 1.77
47 | CCOc1ccc(C(=O)C(C)[n+]2cc(-c3ccc(OC)cc3)n3c2CCC3)cc1 (stereo not given) | 33.2 | 0.506 | 0.595
48 | C=CCc1c(C)nc2ccc(Br)cc2c1O | > 100 | 1.6 | 1.79
49 | CCOC(=O)CCC(=O)Oc1ccccc1-c1nc2ccccn2c1NC(C)(C)CC(C)(C)C | > 10 | 1.06 | 0.177
50 | c1ccc(Oc2cccc(CN3CCc4nc(N5CCCCC5)sc4C3)c2)cc1 | > 10 | 0.294 | 0.173
51 | Cc1ncc(CCCCN(C)C)c2c1[nH]c1ccccc12 | 18.8 | 0.472 | 0.325
52 | Cc1cccc(N2C(N)=NC(N)=NC2(C)C)c1 | 2.98 | 0.0202 | 0.0528
53 | COc1ccc(OC)c(C(C(=O)NC2CCCC2)N(C(=O)c2snc(C(N)=O)c2N)c2ccccc2OC)c1 (stereo not given) | > 100 | 2.54 | 1.79
54 | O=C(c1ccncc1)N1CCN(Cc2ccc3c(c2)OCO3)CC1 | > 10 | 0.964 | 0.176
55 | CC(Cc1ccccc1)NCCCCCCCNC(C)Cc1ccccc1 (stereo not given) | 5.9 | 0.268 | 0.105
